Results published in patent publication US20050075358A1, “Methods for treating IGF1R-inhibitor induced hyperglycemia” (priority 2003, published 2005).

Legend:
[1] = acute OGTT study of combination therapy using Metformin and Inhibitor A in rats; assay type: in vivo
Protocol: FIG. 2: An acute OGTT study to determine the effects of combination therapy using Metformin and Inhibitor A on glucose-lowering was conducted in rats. In order to stabilize glucose levels, food was withdrawn for 1 hr prior to administration of any reagent. Glucose challenge was administered 2 hrs after the administration of Inhibitor A and plasma glucose monitored. Plasma glucose levels increased upon administration of the Inhibitor (200 mpk) to 150 mg/dl prior to glucose challenge and to 250 mg/dl post-glucose challenge.

insulin receptor = target: T1, insulin receptor (Rattus norvegicus, UniProt P15127); experiment: acute Oral Glucose Tolerance Test (OGTT) in rats; assay type: in vivo; conditions: fasted rats, oral single dose 50, 100 and 200 mpk 4 hrs prior to glucose challenge (1 g/kg); glucose at 30, 60, 90, 120 min by glucometer
T1 construct: from tissue; host or cells: whole living rats (in vivo)
T1 sequence (P15127 764-1383 limits assumed): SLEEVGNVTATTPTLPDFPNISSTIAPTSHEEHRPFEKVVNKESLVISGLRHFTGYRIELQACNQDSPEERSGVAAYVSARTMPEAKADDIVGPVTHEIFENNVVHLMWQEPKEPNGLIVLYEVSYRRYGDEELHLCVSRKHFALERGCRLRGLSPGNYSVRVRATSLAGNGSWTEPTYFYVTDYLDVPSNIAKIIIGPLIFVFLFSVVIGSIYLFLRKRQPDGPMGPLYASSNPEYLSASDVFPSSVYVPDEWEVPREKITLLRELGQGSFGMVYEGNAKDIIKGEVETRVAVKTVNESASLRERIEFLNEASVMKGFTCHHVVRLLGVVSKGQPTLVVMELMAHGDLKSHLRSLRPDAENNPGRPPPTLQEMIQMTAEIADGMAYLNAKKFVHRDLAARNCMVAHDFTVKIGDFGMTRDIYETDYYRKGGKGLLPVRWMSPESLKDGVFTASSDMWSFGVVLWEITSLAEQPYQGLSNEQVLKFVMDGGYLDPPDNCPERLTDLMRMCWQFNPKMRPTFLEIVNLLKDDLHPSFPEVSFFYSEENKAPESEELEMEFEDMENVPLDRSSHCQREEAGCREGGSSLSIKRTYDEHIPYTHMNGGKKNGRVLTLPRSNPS
T1 sequence (P15127 27-759 partner limits assumed): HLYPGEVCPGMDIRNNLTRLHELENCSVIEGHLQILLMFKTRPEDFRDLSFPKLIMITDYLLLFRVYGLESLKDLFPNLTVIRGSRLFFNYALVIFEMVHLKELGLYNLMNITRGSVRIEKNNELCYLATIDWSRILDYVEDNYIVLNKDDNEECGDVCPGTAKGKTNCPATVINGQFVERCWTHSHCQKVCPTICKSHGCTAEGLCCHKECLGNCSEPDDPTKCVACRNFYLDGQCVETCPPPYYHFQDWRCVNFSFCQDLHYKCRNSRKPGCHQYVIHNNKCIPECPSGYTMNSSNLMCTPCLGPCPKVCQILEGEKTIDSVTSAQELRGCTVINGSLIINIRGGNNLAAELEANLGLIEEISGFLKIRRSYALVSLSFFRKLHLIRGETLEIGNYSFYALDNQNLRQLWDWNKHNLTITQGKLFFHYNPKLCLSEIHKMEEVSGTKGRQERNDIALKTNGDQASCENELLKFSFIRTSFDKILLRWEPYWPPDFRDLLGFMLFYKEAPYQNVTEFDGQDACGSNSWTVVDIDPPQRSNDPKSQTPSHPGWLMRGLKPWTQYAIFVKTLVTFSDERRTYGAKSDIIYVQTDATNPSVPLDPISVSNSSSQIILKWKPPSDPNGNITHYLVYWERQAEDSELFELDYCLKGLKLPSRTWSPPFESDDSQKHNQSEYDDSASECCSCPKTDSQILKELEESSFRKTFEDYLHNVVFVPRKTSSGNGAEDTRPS
Protocol: FIG. 1: The effect of inhibition of the insulin receptor was measured using an Oral Glucose Tolerance Test (OGTT). IGF1R Inhibitor A (4-[2-(3-chloro-phenyl)-2-hydroxy-ethylamino]-3-(4-methyl-6-morpholin-4-yl-1H-benzoimidazol-2-yl)-1H-pyridin-2-one) was tested in an acute OGTT study in rats: Fasted rats were orally dosed with Inhibitor A at 50, 100, and 200 mpk as a single dose for 4 hrs prior to glucose challenge (1 g/kg). Glucose was monitored at 30, 60, 90 and 120 minutes post glucose challenge using a glucometer.

plasma glucose level post-glucose challenge ([1]; rats, Inhibitor 200 mpk, glucose challenge 2 hrs after Inhibitor A) | plasma glucose level prior to glucose challenge ([1]; rats, Inhibitor 200 mpk, prior to glucose challenge) | Compound | hyperglycemic effects of Inhibitor A after Metformin pretreatment ([1]; rats pretreated for 1 hr with Metformin 450 mpk, then Inhibitor A 200 mpk) | effect on basal and post-glucose challenge glucose (insulin receptor)
– | – | CN(C)C(=N)N=C(N)N [Metformin, reference compound] | completely ameliorated | –
250 mg/dL | 150 mg/dL | Cc1cc(N2CCOCC2)cc2[nH]c(-c3c(NCC(O)c4cccc(Cl)c4)cc[nH]c3=O)nc12 (stereo not shown) [Inhibitor A, 4-[2-(3-chloro-phenyl)-2-hydroxy-ethylamino]-3-(4-methyl-6-morpholin-4-yl-1H-benzoimidazol-2-yl)-1H-pyridin-2-one] | – | more pronounced effect on basal and post-glucose challenge at higher drug concentrations
